Experiments:
Assay type in all cases: in vivo
[1] = system: Alopecurus myosuroides (ALOMY); assay: Pre-emergence herbicidal activity, glasshouse pot test; details: Alopecurus myosuroides, 480 h, rate 500 g/ha, evaluated after 20 days, read-out: Pre-emergence activity, ALOMY (100=total damage to plant; 0=no damage to plant)
Protocol: (§1) Monocotyledonous and dicotyledonous test plants were sown in sterilised standard soil in pots. After cultivation for one day (pre-emergence) or after 10 days cultivation (post-emergence) under controlled conditions in a glasshouse, the plants were sprayed with an aqueous spray solution derived from the formulation of the technical active ingredient in 0.6 ml acetone and 45 ml formulation solution containing 10.6% Emulsogen EL (Registry number 61791-12-6), 42.2% N-methylpyrrolidone, 42.2% dipropylene glycol monomethyl ether (Registry number 34590-94-8) and 0.2% X-77 (Registry number 11097-66-8). The test plants were then grown in a greenhouse under optimum conditions until, 14 or 15 days later for post-emergence and 20 days for pre-emergence, the test was evaluated (100=total damage to plant; 0=no damage to plant). Alopecurus myosuroides (ALOMY), Avena fatua (AVEFA), Lolium perenne (LOLPE), Setaria faberi (SETFA), Digitaria sanguinalis (DIGSA), Echinochloa crus-galli (ECHCG) Pre-Emergence Activity

[2] = system: Avena fatua (AVEFA); assay: as above; details: Avena fatua, 480 h, rate 500 g/ha, evaluated after 20 days, read-out: Pre-emergence activity, AVEFA (100=total damage to plant; 0=no damage to plant)
Protocol: as §1

[3] = system: Digitaria sanguinalis (DIGSA); assay: as above; details: Digitaria sanguinalis, 480 h, rate 500 g/ha, evaluated after 20 days, read-out: Pre-emergence activity, DIGSA (100=total damage to plant; 0=no damage to plant)
Protocol: as §1

[4] = system: Echinochloa crus-galli (ECHCG); assay: as above; details: Echinochloa crus-galli, 480 h, rate 500 g/ha, evaluated after 20 days, read-out: Pre-emergence activity, ECHCG (100=total damage to plant; 0=no damage to plant)
Protocol: as §1

[5] = system: Lolium perenne (LOLPE); assay: as above; details: Lolium perenne, 480 h, rate 500 g/ha, evaluated after 20 days, read-out: Pre-emergence activity, LOLPE (100=total damage to plant; 0=no damage to plant)
Protocol: as §1

[6] = system: Setaria faberi (SETFA); assay: as above; details: Setaria faberi, 480 h, rate 500 g/ha, evaluated after 20 days, read-out: Pre-emergence activity, SETFA (100=total damage to plant; 0=no damage to plant)
Protocol: as §1

[7] = system: Alopecurus myosuroides (ALOMY); assay: Post-emergence herbicidal activity, glasshouse pot test; details: Alopecurus myosuroides, evaluated after 14 or 15 days, read-out: Post-emergence activity, ALOMY (100=total damage to plant; 0=no damage to plant); for pest or weed control at 125 g/ha: rate 125 g/ha; for pest or weed control at 500 g/ha: rate 500 g/ha
Protocol: as §1, with “Post-Emergence” for “Pre-Emergence”

[8] = system: Avena fatua (AVEFA); assay: as above; details: Avena fatua, evaluated after 14 or 15 days, read-out: Post-emergence activity, AVEFA (100=total damage to plant; 0=no damage to plant); for pest or weed control at 125 g/ha: rate 125 g/ha; for pest or weed control at 500 g/ha: rate 500 g/ha
Protocol: as §1, with “Post-Emergence” for “Pre-Emergence”

[9] = system: Digitaria sanguinalis (DIGSA); assay: as above; details: Digitaria sanguinalis, evaluated after 14 or 15 days, read-out: Post-emergence activity, DIGSA (100=total damage to plant; 0=no damage to plant); for pest or weed control at 125 g/ha: rate 125 g/ha; for pest or weed control at 500 g/ha: rate 500 g/ha
Protocol: as §1, with “Post-Emergence” for “Pre-Emergence”

[10] = system: Echinochloa crus-galli (ECHCG); assay: as above; details: Echinochloa crus-galli, evaluated after 14 or 15 days, read-out: Post-emergence activity, ECHCG (100=total damage to plant; 0=no damage to plant); for pest or weed control at 125 g/ha: rate 125 g/ha; for pest or weed control at 500 g/ha: rate 500 g/ha
Protocol: as §1, with “Post-Emergence” for “Pre-Emergence”

[11] = system: Lolium perenne (LOLPE); assay: as above; details: Lolium perenne, evaluated after 14 or 15 days, read-out: Post-emergence activity, LOLPE (100=total damage to plant; 0=no damage to plant); for pest or weed control at 125 g/ha: rate 125 g/ha; for pest or weed control at 500 g/ha: rate 500 g/ha
Protocol: as §1, with “Post-Emergence” for “Pre-Emergence”

[12] = system: Setaria faberi (SETFA); assay: as above; details: Setaria faberi, evaluated after 14 or 15 days, read-out: Post-emergence activity, SETFA (100=total damage to plant; 0=no damage to plant); for pest or weed control at 125 g/ha: rate 125 g/ha; for pest or weed control at 500 g/ha: rate 500 g/ha
Protocol: as §1, with “Post-Emergence” for “Pre-Emergence”

| SMILES | pest or weed control at 500 g/ha [1] | pest or weed control at 500 g/ha [2] | pest or weed control at 500 g/ha [3] | pest or weed control at 500 g/ha [4] | pest or weed control at 500 g/ha [5] | pest or weed control at 500 g/ha [6] | pest or weed control at 125 g/ha [7] | pest or weed control at 125 g/ha [8] | pest or weed control at 125 g/ha [9] | pest or weed control at 125 g/ha [10] | pest or weed control at 125 g/ha [11] | pest or weed control at 125 g/ha [12] | pest or weed control at 500 g/ha [7] | pest or weed control at 500 g/ha [8] | pest or weed control at 500 g/ha [9] | pest or weed control at 500 g/ha [10] | pest or weed control at 500 g/ha [11] | pest or weed control at 500 g/ha [12] |
| --- | --- | --- | --- | --- | --- | --- | --- | --- | --- | --- | --- | --- | --- | --- | --- | --- | --- | --- |
| CCc1cc(C)cc(CC)c1C1=C(OC(C)=O)CC2(CCOCC2)CC1=O [Compound P1] | 100% | 100% | 100% | 100% | 100% | 100% | 50% | 60% | 50% | 50% | 30% | 30% | – | – | – | – | – | – |
| CCc1cc(C)cc(CC)c1C1=C(OC(=O)C(C)C)CC2(CCOCC2)CC1=O [Compound P3] | 100% | 100% | 100% | 100% | 100% | 100% | 100% | 100% | 90% | 100% | 100% | 90% | – | – | – | – | – | – |
| CCc1cc(C)cc(CC)c1C1=C(OC(=O)C(C)(C)C)CC2(CCOCC2)CC1=O [Compound P4] | 100% | 100% | 100% | 90% | 100% | 100% | – | – | – | – | – | – | 100% | 90% | 80% | 100% | 100% | 80% |
| CCc1cc(C)cc(CC)c1C1=C(OC(=O)CC(C)C)CC2(CCOCC2)CC1=O [Compound P5] | 100% | 100% | 100% | 100% | 100% | 100% | 100% | 100% | 100% | 100% | 100% | 90% | – | – | – | – | – | – |
| CCc1cc(C)cc(CC)c1C1=C(OC(=O)Cc2ccc(F)cc2)CC2(CCOCC2)CC1=O [Compound P7] | 40% | 80% | 100% | 70% | 100% | 100% | 80% | 80% | 80% | 80% | 100% | 80% | – | – | – | – | – | – |
| CCc1cc(C)cc(CC)c1C1=C(OC(=O)COC)CC2(CCOCC2)CC1=O [Compound P8] | 100% | 90% | 100% | 100% | 100% | 100% | 90% | 100% | 100% | 100% | 90% | 90% | – | – | – | – | – | – |
| CCc1cc(C)cc(CC)c1C1=C(OC(=O)C2CC2)CC2(CCOCC2)CC1=O [Compound P9] | 100% | 100% | 100% | 100% | 100% | 100% | 80% | 100% | 90% | 100% | 90% | 90% | – | – | – | – | – | – |
| CCc1cc(C)cc(CC)c1C1=C(OC(=O)C(C)(C)C)CC(C(C)(C)SC)CC1=O (stereo not shown) [Compound P52] | 100% | 100% | 100% | 100% | – | 100% | – | – | – | – | – | – | 100% | 90% | 90% | 90% | 100% | 90% |
| CCSC(C)CC1CC(=O)C(c2c(C)cc(C)cc2C)=C(O)C1 (stereo not shown) [Compound T9] | 30% | 30% | 40% | – | 0% | – | – | – | – | – | – | – | 50% | 50% | 90% | 80% | 50% | 80% |
| CCc1cc(C)cc(CC)c1C1=C(O)CC2(CCSCC2)CC1=O [Compound T11] | 80% | – | 90% | 80% | 100% | 90% | – | – | – | – | – | – | 80% | 80% | 90% | 90% | 70% | 90% |
| CCCS(=O)(=O)C(C)CC1CC(=O)C(c2c(CC)cc(C)cc2CC)=C(O)C1 (stereo not shown) [Compound T36] | 100% | 90% | 100% | – | 100% | 100% | – | – | – | – | – | – | 90% | 90% | 70% | 100% | 90% | 50% |

Source: patent US8084649B2, “Herbicides” (Syngenta Crop Protection, inc., priority 2007, dated 2011)
